System: fungal tyrosinase
Experiment: in vitro inhibition of the activity of fungal tyrosinase (absorbance at 475 nm)
Type: biochemical
Settings: for molar concentration for which an inhibition value of 25% is observed: compound dissolved in ethanol, phosphate buffer, L-tyrosine and L-Dopa substrates, OD 475 nm
Experimental: This test involves in measuring the absorbance (optical density OD) at 475 nm as a function of time for the hydroquinone dissolved (at various concentrations) in ethanol in the presence of a phosphate buffer, 1 ml of L-tyrosine at 2.0×10^−3 M in a phosphate buffer, 0.1 ml of L-Dopa at 1.0×10^−4 M in a phosphate buffer and 50 μl of a solution of fungal tyrosinase at 1 g/l in a phosphate buffer, compared with a control consisting of ethanol (solvent) used at the same concentration in the phosphate buffer.
The percentage of inhibition is determined by the following equation: [formula]
The molar concentration of hydroquinone for which an inhibition value of 25% is observed is then determined.
The test described in Example 1 above is used, except that N-ethyloxycarbonyl-4-para-aminophenol was substituted for N-cholesteryloxycarbonyl-4-para-aminophenol.

Structure (SMILES) | inhibition of tyrosinase (compound alone at C2=6.77×10^−5 M (solubility limit in DMSO)) | molar concentration for which an inhibition value of 25% is observed [µM]
CC(C)CCC[C@@H](C)[C@H]1CC[C@H]2[C@@H]3CC=C4C[C@@H](OC(=O)Nc5ccc(O)cc5)CC[C@]4(C)[C@H]3CC[C@]12C [N-cholesteryloxycarbonyl-4-para-aminophenol] | no inhibition | 
CCOC(=O)Nc1ccc(O)cc1 [N-ethyloxycarbonyl-4-para-aminophenol] |  | 125
Oc1ccc(O)cc1 [hydroquinone] |  | 80

Reference: US6960347B2, “Composition based on N-cholesteryloxycarbonyl-4-para-aminophenol and hydroquinone or one of its derivatives” (L'Oreal, priority 2000, dated 2005)
